Test results reported in patent publication US6967237B2, “Ghrelin analogs” (priority 2000, dated 2005).
Like-named read-outs stand apart in the source and are kept apart here. Where a SMILES comes first, the peptide text is derived from it. Where no end group is shown, it is not given here. [ ]: non-standard residue; d: D form. The star is where a group is joined. Octanoyl = CCCCCCCC(=O)*

Legend:
somatotrops = conditions: several species including man; cited from earlier work
human GHSR1a = human GHSR1a (Homo sapiens, UniProt Q92847); assay: Aequorin bioluminescence functional assay (intracellular calcium mobilization) in 293AEQ17/GHSR1a cells; type: cell-based; conditions: for activation at 10 µM: read-out: Functional Assay % activation at 10 μM relative to ghrelin; for EC50: aequorin bioluminescence, HEK-293 cells expressing hGHSR1a, three separate assays
Description: A stable cell line expressing the human GHSR1a and the aequorin reporter protein were used for the assay.
The assay was performed using a Luminoskan RT luminometer (Labsystems Inc., Gaithersburg, Md.) controlled by custom software written for a Macintosh PowerPC 6100. […] The cells were harvested, washed once in ECB medium and resuspended to 500,000 cells/ml. 100 ml of cell suspension (corresponding to 5×10^4 cells) was then injected into the test plate containing the peptides, and the integrated light emission was recorded over 30 seconds, in 0.5 second units. 20 μL of lysis buffer (0.1% final Triton X-100 concentration) was then injected and the integrated light emission recorded over 10 seconds, in 0.5 second units. The “fractional response” values for each well were calculated by taking the ratio of the integrated response to the initial challenge to the total integrated luminescence including the Triton X-100 lysis response. The functional EC50 values were measured in three separate assays.

human GHS receptor 1a = human GHS receptor 1a (Homo sapiens, UniProt Q92847); assay: Competitive binding assay with [35S]-MK-677 on membranes of HEK 293-aequorin cells transfected with human GHS receptor; conditions: competition with 0.05 nM [35S]-MK-677; three separate assays in triplicate
Sequence of human GHS receptor 1a (Q92847 whole entry): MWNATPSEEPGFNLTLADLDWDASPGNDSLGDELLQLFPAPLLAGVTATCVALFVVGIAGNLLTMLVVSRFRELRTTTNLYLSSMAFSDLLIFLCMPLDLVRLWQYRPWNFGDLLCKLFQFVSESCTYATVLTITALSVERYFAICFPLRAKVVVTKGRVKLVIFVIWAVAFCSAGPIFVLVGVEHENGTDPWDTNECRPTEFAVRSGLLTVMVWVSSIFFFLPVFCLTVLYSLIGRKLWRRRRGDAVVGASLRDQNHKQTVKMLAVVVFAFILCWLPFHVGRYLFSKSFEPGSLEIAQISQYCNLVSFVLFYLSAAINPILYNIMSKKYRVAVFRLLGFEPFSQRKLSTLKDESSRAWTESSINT
Description: Prior to the binding assay, the HEK 293-AEQ17 cells (8×10^5 cells plated 18 hours before transfection in a T75 flask) were transfected with 22 μg of human GHS receptor plasmid using 264 μg lipofectamine. The open reading frame cDNA (SEQ. ID. NO. 22) encoding the human GHS receptor inserted in the mammalian expression vector pcDNA-3 (Invitrogen, Carlsbad, Calif.) was used for binding and expression studies.
For a 96-well filter binding assay, 0.05 nM [^35S]-NM-677 (specific activity ˜1200 Ci/mmol) was bound to 4 μg membrane protein per well with or without competing test ligand. The bound membranes were filtered on 0.5% polyethylenimine prewet filters (UniFilter 96 GF/C; Packard #6005174, Meriden, Conn.). Filters were washed 8 times, dried, and counted with Microscint 20 (Packard #6013621, Meriden, Conn.). IC50 values were determined from three separate assays performed in triplicate.

Sequence of human GHSR1a (Q92847 whole entry): as above

| activation at 10 µM (human GHSR1a; at 10 μM, relative to ghrelin) [%] | Molecule | further results |
| --- | --- | --- |
|  | H[dW]AW[dF]K-NH2 [GHRP-6] | growth hormone release from somatotrops, result in words (somatotrops): release growth hormone from somatotrops in a dose-dependent manner |
| 97 ± 9 | CCCCCCCC(=O)OC[C@H](NC(=O)[C@H](CO)NC(=O)CN)C(=O)N[C@@H](Cc1ccccc1)C(=O)N[C@@H](CC(C)C)C(=O)N[C@@H](CO)C(=O)N1CCC[C@H]1C(=O)N[C@@H](CCC(=O)O)C(=O)N[C@@H](Cc1c[nH]cn1)C(=O)N[C@@H](CCC(N)=O)C(=O)N[C@@H](CCCNC(=N)N)C(=O)N[C@H](C(=O)N[C@@H](CCC(N)=O)C(=O)N[C@@H](CCC(N)=O)C(N)=O)C(C)C [Compound 13, GSXFLSPEHQRVQQ] |  |
|  | CCCCCCCC(=O)OC[C@H](NC(C)=O)C(=O)N[C@@H](Cc1ccccc1)C(=O)N[C@@H](CC(C)C)C(N)=O [Compound 25, Ac-XFL-NH2] (Ac-Ser(Octanoyl)-Phe-Leu-NH2) | EC50 (human GHSR1a): 2.5 ± 1.2 µM; activation at 10 µM (human GHSR1a): 29 ± 7% |
| 105 ± 5 | CCCCCCCC(=O)NC[C@H](NC(=O)[C@H](CO)NC(=O)CN)C(=O)N[C@@H](Cc1ccccc1)C(=O)N[C@@H](CC(C)C)C(=O)N[C@@H](CO)C(=O)N1CCC[C@H]1C(=O)N[C@@H](CCC(=O)O)C(=O)N[C@@H](Cc1c[nH]cn1)C(=O)N[C@@H](CCC(N)=O)C(=O)N[C@@H](CCCNC(=N)N)C(=O)N[C@H](C(=O)N[C@@H](CCC(N)=O)C(=O)N[C@@H](CCC(N)=O)C(=O)N[C@@H](CCCNC(=N)N)C(=O)N[C@@H](CCCCN)C(=O)N[C@@H](CCC(=O)O)C(=O)N[C@@H](CO)C(=O)N[C@@H](CCCCN)C(=O)N[C@@H](CCCCN)C(=O)N1CCC[C@H]1C(=O)N1CCC[C@H]1C(=O)N[C@@H](C)C(=O)N[C@@H](CCCCN)C(=O)N[C@@H](CC(C)C)C(=O)N[C@@H](CCC(N)=O)C(=O)N1CCC[C@H]1C(=O)N[C@@H](CCCNC(=N)N)C(=O)O)C(C)C [Compound 12] |  |
| 92 ± 16 | CCCCCCCC(=O)OC[C@H](NC(=O)[C@H](CO)NC(=O)CN)C(=O)N[C@@H](Cc1ccccc1)C(=O)N[C@@H](CC(C)C)C(=O)N[C@@H](CO)C(=O)N1CCC[C@H]1C(=O)N[C@@H](CCC(=O)O)C(=O)N[C@@H](Cc1c[nH]cn1)C(=O)N[C@@H](CCC(N)=O)C(=O)N[C@@H](CCCNC(=N)N)C(=O)N[C@H](C(=O)N[C@@H](CCC(N)=O)C(=O)N[C@@H](CCC(N)=O)C(=O)N[C@@H](CCCNC(=N)N)C(=O)N[C@@H](CCCCN)C(=O)N[C@@H](CCC(=O)O)C(=O)N[C@@H](CO)C(N)=O)C(C)C [Compound 19, GSXFLSPEHQRVQQRKES-NH2] (H-GSS(Octanoyl)FLSPEHQRVQQRKES-NH2; N-terminus assumed) |  |
|  | CCCCCCCC(=O)OC[C@H](NC(=O)[C@H](CO)NC(=O)CN)C(N)=O [Compound 24, GSX-NH2] (H-Gly-Ser-Ser(Octanoyl)-NH2) | activation at 10 µM (human GHSR1a): 28 ± 1% |
| 102 ± 3 | CCCCCCCC(=O)NC[C@H](NC(=O)[C@H](CO)NC(=O)CN)C(=O)N[C@@H](Cc1ccccc1)C(=O)N[C@@H](CC(C)C)C(=O)N[C@@H](CO)C(=O)N1CCC[C@H]1C(=O)N[C@@H](CCC(=O)O)C(=O)N[C@@H](Cc1c[nH]cn1)C(=O)N[C@@H](CCC(N)=O)C(=O)N[C@@H](CCCNC(=N)N)C(=O)N[C@H](C(=O)N[C@@H](CCC(N)=O)C(=O)N[C@@H](CCC(N)=O)C(=O)O)C(C)C [Compound 14] |  |
| 91 ± 4 | CCCCCCCC(=O)OC[C@H](NC(=O)[C@H](CO)NC(=O)CN)C(=O)N[C@@H](Cc1ccccc1)C(N)=O [Compound 22, GSXF-NH2] (H-GSS(Octanoyl)F-NH2) | IC50 (human GHS receptor 1a): 0.889 ± 0.072 µM; EC50 (human GHSR1a): 0.072 ± 0.029 µM |
| 96 ± 7 | CCCCCCCC(=O)OC[C@H](NC(=O)[C@H](CO)NC(=O)CN)C(=O)N[C@@H](Cc1ccccc1)C(=O)N[C@@H](CC(C)C)C(N)=O [Compound 21, GSXFL-NH2] (H-GSS(Octanoyl)FL-NH2) |  |
| 100 ± 4 | CCCCCCCC(=O)OC[C@H](NC(=O)[C@H](CO)NC(=O)CN)C(=O)N[C@@H](Cc1ccccc1)C(=O)N[C@@H](CC(C)C)C(=O)N[C@@H](CO)C(=O)N1CCC[C@H]1C(=O)N[C@@H](CCC(=O)O)C(=O)N[C@@H](Cc1c[nH]cn1)C(=O)N[C@@H](CCC(N)=O)C(=O)N[C@@H](CCCNC(=N)N)C(=O)N[C@H](C(=O)N[C@@H](CCC(N)=O)C(=O)N[C@@H](CCC(N)=O)C(=O)N[C@@H](CCCNC(=N)N)C(=O)N[C@@H](CCCCN)C(=O)N[C@@H](CCC(=O)O)C(=O)N[C@@H](CO)C(=O)N[C@@H](CCCCN)C(=O)N[C@@H](CCCCN)C(=O)N1CCC[C@H]1C(=O)N1CCC[C@H]1C(=O)N[C@@H](C)C(N)=O)C(C)C [Compound 18, GSXFLSPEHQRVQQRKESKKPPA-NH2] (H-GSS(Octanoyl)FLSPEHQRVQQRKESKKPPA-NH2) |  |

| Molecule | activation at 10 µM (human GHSR1a; at 10 μM, relative to ghrelin) [%] | further results |
| --- | --- | --- |
| CCCCCCCC(=O)OC[C@H](NC(=O)[C@H](CO)NC(C)=O)C(=O)N[C@@H](Cc1ccccc1)C(N)=O [Compound 26, Ac-SXF-NH2] (Ac-Ser-Ser(Octanoyl)-Phe-NH2) | 28 ± 1 |  |
| CCCCCCCC(=O)OC[C@H](NC(=O)[C@H](CO)NC(C)=O)C(=O)N[C@@H](Cc1ccccc1)C(=O)N[C@@H](CC(C)C)C(N)=O [Compound 23, Ac-SXFL-NH2] (Ac-SS(Octanoyl)FL-NH2) | 30 ± 5 | EC50 (human GHSR1a): 1.15 ± 0.12 µM |
